In article PMC12525728, “Safety, Pharmacokinetics, Translational and Molecular Mechanistic Insights on the Prostate Cancer Recurrence Suppressor Pseurotin A” (Molecules, 2025):
Where “and” joins values, the source holds several entries; their conditions need not be identical. Identical values can stand only once.

Key:
[1] = system: HFD-fed Swiss albino mice; experiment: Systemic cholesterol monitoring assay in HFD-fed mice, 90-day oral dosing; type: in vivo; settings: 90 days; for reduction of HFD-induced hypercholesterolemia relative to the control: female; for plasma cholesterol relative reduction versus the control group: male
Experimental: Plasmatic cholesterol concentrations in mice were determined using a total cholesterol kit (EnzyChrom^TM Cholesterol Assay Kit ECCH-100 BioAssay Systems, Hayward, CA, USA), adhering to the manufacturer’s instructions. Colorimetric quantitation was measured at 340 nm using a Synergy 2 microplate reader (BioTek Instruments Inc., Winooski, VT, USA). Blood was collected through tail vein extraction on the day before treatment, day 35, and day 90. Blood was quickly collected into green-topped Lithium Heparin 400 µL blood collection tubes (BD Microtainer REF# 365965 Becton, Dickinson and Company, Franklin Lakes, NJ, USA), centrifuged at 13,000× g for 10 min, and the upper layer of plasma was transferred to 1.5 mL Eppendorf tubes (Thermo Fisher Scientific, Waltham, MA, USA) and stored at −20 °C until analysis.
For the 90-day daily oral dosing sub-chronic toxicity study, twenty male and twenty female healthy 8-week-old Swiss albino mice were randomly selected and randomized to […] (n = 5/sex/group). Mice received free access to purified drinking water and high-fat diet (HFD) pelleted rodent chow (11.4% total fat, no. 7004, Envigo/Teklad, Madison, WI, USA) until the day before sacrifice, at which time they were fasted for 8 h and allowed only free access to drinking water. Daily doses of PsA (10, 40, 80 mg/kg body weight) were administered to the mice formulated in <5% DMSO (Mediatech Inc., Manassas, VA, USA) and <0.2% Tween 80 (Croda Inc., Princeton, NJ, USA) at a volume not exceeding 1% of body weight by metal oral gavage (2 mm diameter with stainless steel bite protector, 18-gauge, 3.81 cm long). […] The mice were observed weekly until the completion of the study. The body weights of the mice were measured in grams using a Scout^TM Pro (Ohaus Corp., Pine Brook, NJ, USA) on day 0, 4, 8, 11, 14, 21, 28, 35, 42, 49, 56, 63, 70, 77, 83, and 90 after initial treatment. On day 90, all mice were anesthetized using isoflurane (USP-vaporizer method, Matrix VIP-3000, Covetrus, Dublin, OH, USA, exposure of animals in an anesthesia chamber at 3% isoflurane vaporization rate. Exposure time 2 min). Mice were then euthanized by cervical dislocation according to the 2020 AVMA Guidelines on Euthanasia and dissected. Mice organs (brain, liver, kidney, heart, lungs, spleen) were excised and weighed for histopathological examination. The organs were stored in 10% neutral buffered formalin (Avantor Science Central, Allentown, PA, USA) for 24 h and then transferred to 70% ethanol (AAPER ALCOHOL, Shelbyville, KY, USA). This study was performed following the OECD guideline 408 for the testing of chemicals.

[2] = system: mCRPC CWR-R1ca-Luc cells; experiment: mCRPC recurrence prevention study after neoadjuvant DTX and ENZ and primary tumor excision; type: in vivo, athymic male nude mice; settings: 60 days
Experimental: For the recurrence prevention study, nineteen 7–8-week-old athymic male nude mice (Strain Foxn^nu-Foxn^1+) were xenografted with 2 × 10^6 the mCRPC CWR-R1ca-Luc cells at the suprascapular region in 100 µL 1:1 serum-free Dulbecco’s Modified Eagle Medium (DMEM) medium-Matrigel. Mice were fed on an HFD (11.4% total fat, Cat# 7004, Envigo/Teklad, Madison, WI, USA) for 7 days before the tumor cells xenografting. When the tumors reached 100 mm^3, mice were subjected to weekly IV injections of 10 mg/kg docetaxel (DTX) (Combi-Blocks, San Diego, CA, USA) dissolved in Tween 80 (20 mg/mL) for four consecutive weeks, followed by daily IP injections of 5 mg/kg ENZ (Combi-Blocks, San Diego, CA, USA) in sterile PBS for three weeks. Following these neoadjuvant regimens, mice were randomly selected and placed into three groups. Groups 1 (n = 7) received daily oral doses of 20 mg/kg PsA (prepared in sterile PBS-DMSO 925:75). Group 2 (n = 5) received daily oral PsA 10 mg/kg. Group 3 (n = 7) received daily oral doses of PsA-free vehicle control. Treatments continued for 60 days. Isoflurane-anesthetized mice were subjected to weekly tumor monitoring using PerkinElmer IVIS Lumina Series III (Waltham, MA, USA) 30 min after an IP injection of (+)-luciferin (75 mg/kg, IP, PerkinElmer, Waltham, MA, USA) for efficiency assessment of excision surgery, tumor progression, and tumor metastasis. Following treatment regimen completion, mice were anesthetized using isoflurane (USP-vaporizer method, Matrix VIP-3000), exposure of animals in an anesthesia chamber at 3% isoflurane vaporization rate. Exposure time 2 min. Mice were then euthanized by cervical dislocation according to the American Veterinary Medical Association (AVMA) Guidelines for the Euthanasia of Animals: 2020 Edition, and tumors were collected. Tumors were snap frozen using Isopentane (J.T. Baker, Radnor, PA, USA) in liquid nitrogen before storage at −80 °C.

CC/C=C\[C@H](O)[C@H](O)C1=C(C)C(=O)[C@]2(O1)C(=O)N[C@@](OC)(C(=O)c1ccccc1)[C@@H]2O [PsA, pseurotin A]
reduction of HFD-induced hypercholesterolemia relative to the control ([1]; 10 mg/kg daily oral): −80.7% | reduction of HFD-induced hypercholesterolemia relative to the control ([1]; 40 mg/kg daily oral): −92.9% | reduction of HFD-induced hypercholesterolemia relative to the control ([1]; 80 mg/kg daily oral): −85.5% | plasma cholesterol relative reduction versus the control group ([1]; 10 mg/kg daily oral): −96.1% | plasma cholesterol relative reduction versus the control group ([1]; 40 mg/kg daily oral): −107.3% | plasma cholesterol relative reduction versus the control group ([1]; 80 mg/kg daily oral): −116.7% | Distant recurrence Backbone, affected mice per group ([2]; PsA 10 mg/kg daily oral, n = 5): 1/5 | Distant recurrence Brain, affected mice per group ([2]; PsA 10 mg/kg daily oral, n = 5): 2/5 | Distant recurrence Femur, affected mice per group ([2]; PsA 10 mg/kg daily oral, n = 5): 1/5 | Distant recurrence Heart, affected mice per group ([2]; PsA 10 mg/kg daily oral, n = 5): 1/5 | Distant recurrence Kidney, affected mice per group ([2]; PsA 10 mg/kg daily oral, n = 5): 0/5 | Distant recurrence Liver, affected mice per group ([2]; PsA 10 mg/kg daily oral, n = 5): 1/5 | Distant recurrence Lung, affected mice per group ([2]; PsA 10 mg/kg daily oral, n = 5): 1/5 | Distant recurrence Spleen, affected mice per group ([2]; PsA 10 mg/kg daily oral, n = 5): 1/5 | Locoregional recurrence, affected mice per group ([2]; PsA 10 mg/kg daily oral, n = 5): one and 1/5 | Distant recurrence Backbone, affected mice per group ([2]; PsA 20 mg/kg daily oral, n = 7): 0/7 | Distant recurrence Brain, affected mice per group ([2]; PsA 20 mg/kg daily oral, n = 7): 2/7 | Distant recurrence Femur, affected mice per group ([2]; PsA 20 mg/kg daily oral, n = 7): 1/7 | Distant recurrence Heart, affected mice per group ([2]; PsA 20 mg/kg daily oral, n = 7): 0/7 | Distant recurrence Kidney, affected mice per group ([2]; PsA 20 mg/kg daily oral, n = 7): 0/7 | Distant recurrence Liver, affected mice per group ([2]; PsA 20 mg/kg daily oral, n = 7): 1/7 | Distant recurrence Lung, affected mice per group ([2]; PsA 20 mg/kg daily oral, n = 7): 0/7 | Distant recurrence Spleen, affected mice per group ([2]; PsA 20 mg/kg daily oral, n = 7): 0/7 | Locoregional recurrence, affected mice per group ([2]; PsA 20 mg/kg daily oral, n = 7): one and 1/7
